What was measured:
[1] = Stability of suspension formulations in methylcellulose/Poloxamer 188 vehicles (appearance, concentration, purity, PSD); type: physicochemical; parameters: key: *: homogeneous suspension initially, sedimentation occurred over time and returned to homogeneous after gentle agitation for ~1 min; #: viscous homogeneous suspension initially, sedimentation occurred over time and returned to homogeneous after gentle agitation for ~2 mins; conditions: 96 h at RT
Experimental: (§1) As shown in Tables 9-11, various suspension formulations were tested for stability under different conditions.
(§2) To prepare a suspension weigh required amount of milled Compound 1 into a glass container and add corresponding volume of the vehicle. Thoroughly disperse the compound into a homogenous suspension using an overhead mixer at the final concentration target. Concentrations were prepared at 0.1 mg/mL and at 10 mg/mL. The suspension products were physically evaluated on visual appearance, concentration, purity and PSD.
(§3) The vehicles are prepared by dissolving 0.5% by weight of either 400 cP methylcellulose or 4000 cP methylcellulose and 0.2% Poloxamer 188. For the preserved suspensions, additionally 1.0% by volume of paraben preservative solution was dissolved into vehicle using an overhead mixer. The paraben preservative solution was prepared by dissolving 0.10 g methyl paraben, 0.025 g propylparaben in 9.875 g propylene glycol dissolved by mixing with a stir bar at room temperature for 1 hour.

[2] = as above; type: physicochemical; parameters: key to Appearance: *: homogeneous suspension initially, sedimentation occurred over time and returned to homogeneous after gentle agitation for ~1 min; #: viscous homogeneous suspension initially, sedimentation occurred over time and returned to homogeneous after gentle agitation for ~2 mins; conditions: 0.5% 400 cP MC, 0.2% Poloxamer 188
Experimental: as §1, §2, §3

[3] = target 0.1 mg/mL, 2-8° C., 14 D
[4] = target 0.1 mg/mL, 2-8° C., 28 D
[5] = target 0.1 mg/mL, 2-8° C., time 0
[6] = target 0.1 mg/mL, 25° C./60% RH, 2 M
[7] = target 0.1 mg/mL, 25° C./60% RH, 3 M
[8] = target 0.1 mg/mL, 25° C./60% RH, 7 D
[9] = target 0.1 mg/mL, 25° C./60% RH, 14 D
[10] = target 0.1 mg/mL, 25° C./60% RH, 28 D
[11] = target 0.1 mg/mL, 25° C./60% RH, time 0
[12] = target 10 mg/mL, 2-8° C., time 0
[13] = target 10 mg/mL, 25° C./60% RH, 2 M
[14] = target 10 mg/mL, 25° C./60% RH, 3 M
[15] = target 10 mg/mL, 25° C./60% RH, 7 D
[16] = target 10 mg/mL, 25° C./60% RH, 14 D
[17] = target 10 mg/mL, 25° C./60% RH, 28 D
[18] = target 10 mg/mL, 25° C./60% RH, time 0

Visual Appearance ([1]; 0.5% 400 cP MC, 0.2% Poloxamer 188, 0.1 mg/mL): *
Visual Appearance ([1]; 0.5% 400 cP MC, 0.2% Poloxamer 188, 10 mg/mL): *
Visual Appearance ([1]; 0.5% 400 cP MC, 0.2% Poloxamer 188 and 1.0% of paraben preservative solution, 0.1 mg/mL): *
Visual Appearance ([1]; 0.5% 400 cP MC, 0.2% Poloxamer 188 and 1.0% of paraben preservative solution, 10 mg/mL): *
Visual Appearance ([1]; 0.5% 4000 cP MC, 0.2% Poloxamer 188, 0.1 mg/mL): #
Visual Appearance ([1]; 0.5% 4000 cP MC, 0.2% Poloxamer 188, 10 mg/mL): #
Visual Appearance ([1]; 0.5% 4000 cP MC, 0.2% Poloxamer 188 and 1.0% of paraben preservative solution, 0.1 mg/mL): #
Visual Appearance ([1]; 0.5% 4000 cP MC, 0.2% Poloxamer 188 and 1.0% of paraben preservative solution, 10 mg/mL): #
Appearance ([2]; target 0.1 mg/mL, 2-8° C., 2 M): *
Conc. ([2]; target 0.1 mg/mL, 2-8° C., 2 M): 0.11 mg/mL
PSD (D90) ([2]; target 0.1 mg/mL, 2-8° C., 2 M): 9.1 μm
Purity ([2]; target 0.1 mg/mL, 2-8° C., 2 M): 95.87%
Appearance ([2]; target 0.1 mg/mL, 2-8° C., 3 M): *
Conc. ([2]; target 0.1 mg/mL, 2-8° C., 3 M): 0.11 mg/mL
PSD (D90) ([2]; target 0.1 mg/mL, 2-8° C., 3 M): 12.7 μm
Purity ([2]; target 0.1 mg/mL, 2-8° C., 3 M): 93.20%
Appearance ([2]; target 0.1 mg/mL, 2-8° C., 7 D): *
Conc. ([2]; target 0.1 mg/mL, 2-8° C., 7 D): 0.12 mg/mL
PSD (D90) ([2]; target 0.1 mg/mL, 2-8° C., 7 D): 18.2 μm
Purity ([2]; target 0.1 mg/mL, 2-8° C., 7 D): 100%
Appearance [2, 3]: *
Conc. [2, 3]: 0.11 mg/mL
PSD (D90) [2, 3]: 14.2 μm
Purity [2, 3]: 100%
Appearance [2, 4]: *
Conc. [2, 4]: 0.11 mg/mL
PSD (D90) [2, 4]: 15.4 μm
Purity [2, 4]: 100%
Appearance [2, 5]: *
Conc. [2, 5]: 0.11 mg/mL
PSD (D90) [2, 5]: 19.9 μm
Purity [2, 5]: 100%
Appearance [2, 6]: *
Conc. [2, 6]: 0.11 mg/mL
PSD (D90) [2, 6]: 8.6 μm
Purity [2, 6]: 95.87%
Appearance [2, 7]: *
Conc. [2, 7]: 0.11 mg/mL
PSD (D90) [2, 7]: 11.1 μm
Purity [2, 7]: 93.20%
Appearance [2, 8]: *
Conc. [2, 8]: 0.11 mg/mL
PSD (D90) [2, 8]: 19.9 μm
Purity [2, 8]: 100.0%
Appearance [2, 9]: *
Conc. [2, 9]: 0.11 mg/mL
PSD (D90) [2, 9]: 12.9 μm
Purity [2, 9]: 100%
Appearance [2, 10]: *
Conc. [2, 10]: 0.10 mg/mL
PSD (D90) [2, 10]: 8.7 μm
Purity [2, 10]: 100%
Appearance [2, 11]: *
Conc. [2, 11]: 0.11 mg/mL
PSD (D90) [2, 11]: 19.9 μm
Purity [2, 11]: 100.0%
Appearance ([2]; target 10 mg/mL, 2-8° C., 2 M): *
Conc. ([2]; target 10 mg/mL, 2-8° C., 2 M): 10.99 mg/mL
PSD (D90) ([2]; target 10 mg/mL, 2-8° C., 2 M): 4.0 μm
Purity ([2]; target 10 mg/mL, 2-8° C., 2 M): 99.83%
Appearance ([2]; target 10 mg/mL, 2-8° C., 3 M): *
Conc. ([2]; target 10 mg/mL, 2-8° C., 3 M): 10.13 mg/mL
PSD (D90) ([2]; target 10 mg/mL, 2-8° C., 3 M): 3.6 μm
Purity ([2]; target 10 mg/mL, 2-8° C., 3 M): 99.83%
Appearance ([2]; target 10 mg/mL, 2-8° C., 7 D): *
Conc. ([2]; target 10 mg/mL, 2-8° C., 7 D): 10.18 mg/mL
PSD (D90) ([2]; target 10 mg/mL, 2-8° C., 7 D): 6.4 μm
Purity ([2]; target 10 mg/mL, 2-8° C., 7 D): 99.83%
Appearance ([2]; target 10 mg/mL, 2-8° C., 14 D): *
Conc. ([2]; target 10 mg/mL, 2-8° C., 14 D): 10.66 mg/mL
PSD (D90) ([2]; target 10 mg/mL, 2-8° C., 14 D): 5.4 μm
Purity ([2]; target 10 mg/mL, 2-8° C., 14 D): 99.83%
Appearance ([2]; target 10 mg/mL, 2-8° C., 28 D): *
Conc. ([2]; target 10 mg/mL, 2-8° C., 28 D): 10.56 mg/mL
PSD (D90) ([2]; target 10 mg/mL, 2-8° C., 28 D): 3.8 μm
Purity ([2]; target 10 mg/mL, 2-8° C., 28 D): 99.83%
Appearance [2, 12]: *
Conc. [2, 12]: 10.04 mg/mL
PSD (D90) [2, 12]: 5.6 μm
Purity [2, 12]: 99.83%
Appearance [2, 13]: *
Conc. [2, 13]: 10.47 mg/mL
PSD (D90) [2, 13]: 4.3 μm
Purity [2, 13]: 99.83%
Appearance [2, 14]: *
Conc. [2, 14]: 10.16 mg/mL
PSD (D90) [2, 14]: 3.5 μm
Purity [2, 14]: 99.83%
Appearance [2, 15]: *
Conc. [2, 15]: 10.48 mg/mL
PSD (D90) [2, 15]: 6.3 μm
Purity [2, 15]: 99.83%
Appearance [2, 16]: *
Conc. [2, 16]: 9.85 mg/mL
PSD (D90) [2, 16]: 5.2 μm
Purity [2, 16]: 99.83%
Appearance [2, 17]: *
Conc. [2, 17]: 10.00 mg/mL
PSD (D90) [2, 17]: 4.6 μm
Purity [2, 17]: 99.83%
Appearance [2, 18]: *
Conc. [2, 18]: 10.04 mg/mL
PSD (D90) [2, 18]: 5.6 μm
Purity [2, 18]: 99.83%
SMILES: CCOC(F)(F)c1nnc2cnc(-c3cnc(OCC(F)(F)F)c(F)c3)cn12 [Compound 1, 3-(ethoxydifluoromethyl)-6-(5-fluoro-6-(2,2,2-trifluoroethoxy)pyridin-3-yl)-[1,2,4]triazolo[4,3-a]pyrazine]

From patent US12552797B2, “Process for making (3-[cyclopropylethoxy(difluoro)methyl]-6-6[5-fluoro-6-(2,2,2-trifluoroethoxy-3-pyridyl]- [1,2,4]triazolo[4,3-a]pyrazine” (Praxis Precision Medicines, Inc., priority 2019, dated 2026)
